Legend:
SquF (MaSquF) [1] = molecular target: T1, SquF (MaSquF) (Marinobacterium aestuarii, UniProt A0A1A9EZ66); assay: DNPH derivatization and LC-MS of 6-dehydroglucose; assay type: biochemical; settings: 10 mM NADP^+, 100 mM glucose, 50 mM CAPSO pH 10.0, RT; reverse reaction
T1 sequence (A0A1A9EZ66 1-300): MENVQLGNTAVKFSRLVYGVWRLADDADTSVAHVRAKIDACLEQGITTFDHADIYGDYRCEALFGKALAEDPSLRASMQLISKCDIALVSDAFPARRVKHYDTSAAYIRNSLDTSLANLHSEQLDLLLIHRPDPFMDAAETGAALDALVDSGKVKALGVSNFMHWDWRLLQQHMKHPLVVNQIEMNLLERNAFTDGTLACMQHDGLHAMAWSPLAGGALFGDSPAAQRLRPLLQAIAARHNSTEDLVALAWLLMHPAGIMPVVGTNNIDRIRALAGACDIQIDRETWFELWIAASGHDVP

SquF (MaSquF) [2] = molecular target: T1, SquF (MaSquF); assay: LC-MS of glucose; assay type: biochemical; settings: 0.5 mM NADPH, 6-dehydroglucose generated from SQ by SqoD, RT

SMILES	DNPH derivatization and LC-MS of 6-dehydroglucose (SquF (MaSquF) [1])	LC-MS of glucose; NADPH consumption (SquF (MaSquF) [2])
OC[C@H]1OC(O)[C@H](O)[C@@H](O)[C@@H]1O (stereo partly drawn) [D-glucose]	SquF also catalyzed the reverse reaction, oxidation of glucose to 6-dehydoglucose	–
NC(=O)C1=CN([C@@H]2O[C@H](COP(=O)(O)OP(=O)(O)OC[C@H]3O[C@@H](n4cnc5c(N)ncnc54)[C@H](OP(=O)(O)O)[C@@H]3O)[C@@H](O)[C@H]2O)C=CC1 [NADPH]	–	Inclusion of SquF and NADPH in the assay followed by LC-MS analysis
